# Measurements from PMC3888668 (Biological psychiatry, 2008).
# Counter-ions that a name gives are not always drawn. Like-named read-outs stand apart in the source and are kept apart here. Marks after values point to notes of the source that are not given here.
# How the values were obtained:
# [1] = system: high-ethanol–consuming rats; conditions: .3–1 mg/kg, IP; 30 min and 24 hours of ethanol access; cited from earlier work
# [2] = system: low-ethanol–consuming rats; test: Continuous-access 10% ethanol two-bottle-choice drinking paradigm; conditions: for Preference for Ethanol: continuous access to 10% ethanol, mean ± SEM, n = 12
# [3] = system: high-ethanol–consuming rats; conditions: for Preference for Ethanol: intermittent access to 20% ethanol, 24 hours, mean ± SEM, n = 12; for Ethanol consumption compared with vehicle: after 24 hours of ethanol access, intermittent access 20% ethanol; for Ethanol intake after 30 min: after 30 min of ethanol access, Figures 2A-2C in Supplement 1
# DOP-R [4] = biological target: T1, DOP-R (Rattus norvegicus, UniProt P33533); assay type: biochemical; conditions: striatal membranes
# T1 sequence (P33533 whole entry): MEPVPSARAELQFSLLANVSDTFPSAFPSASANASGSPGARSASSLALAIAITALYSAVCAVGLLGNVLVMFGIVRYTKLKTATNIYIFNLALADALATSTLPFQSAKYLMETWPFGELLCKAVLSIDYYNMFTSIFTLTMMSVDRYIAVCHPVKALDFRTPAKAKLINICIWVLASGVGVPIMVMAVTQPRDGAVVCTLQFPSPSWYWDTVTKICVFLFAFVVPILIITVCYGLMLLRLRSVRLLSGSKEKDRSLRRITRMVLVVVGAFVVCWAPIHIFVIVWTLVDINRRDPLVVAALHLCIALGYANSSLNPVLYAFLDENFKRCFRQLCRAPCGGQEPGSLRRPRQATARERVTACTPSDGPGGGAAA
# [5] = Preliminary pharmacokinetics in plasma; assay type: in vivo; conditions: IP, rat plasma
# rats [6] = test: Morphine-mediated analgesia; assay type: in vivo, rat; conditions: Figures 1A and 1B in Supplement 1
# rats [7] = test: Conditioned place preference; assay type: in vivo, rat; conditions: Figure 1C in Supplement 1
# rats [8] = test: Anxiety; assay type: in vivo, rat; conditions: Figure 1D in Supplement 1
# [9] = biological target: δ opioid peptide receptor (DOP-R); conditions: cited from earlier work
# [10] = biological target: μ opioid peptide receptor (MOP-R); conditions: cited from earlier work
# [11] = system: high-ethanol–consuming rats; test: Daily administration for 28 days, intermittent-access 20% ethanol, naive rats
# DOP-R [12] = biological target: T1, DOP-R; assay type: biochemical; conditions: [35S]GTPγS binding
smiles,measurement,setting,value
O=C1CC[C@@]2(O)[C@H]3Cc4ccc(O)c5c4[C@@]2(CCN3CC2CC2)[C@H]1O5 [Naltrexone],Ethanol intake at lower doses,[1],reduce ethanol intake after 30 min but not after 24 hours
same,Preference for Ethanol,"[2]; 5 mg/kg IP, 24 hours",32.7 ± 5.9%
same,Preference for Ethanol,"[2]; 15 mg/kg IP, 24 hours",33.8 ± 7.3%
same,Preference for Ethanol,"[2]; 30 mg/kg IP, 24 hours",37.0 ± 4.9%
same,Ethanol consumption compared with vehicle,"[2]; all doses (5, 15, 30 mg/kg IP), after 24 hours of access, continuous access 10% ethanol",did not produce any significant effect on ethanol consumption
same,Ethanol consumption after a limited access period,"[2]; limited access period 1 hour, continuous access 10% ethanol, data not shown",a reduction in ethanol consumption was observed
same,Preference for Ethanol,[3]; 5 mg/kg IP,55.2 ± 7.1%
same,Preference for Ethanol,[3]; 15 mg/kg IP,54.1 ± 6.4%
same,Preference for Ethanol,[3]; 30 mg/kg IP,54.4 ± 4.7%
same,Ethanol consumption compared with vehicle,[3]; 15 and 30 mg/kg IP,significantly reduce ethanol consumption
same,Ethanol intake after 30 min,[3],selectively reduced ethanol intake
"Oc1ccc2c3c1O[C@H]1c4[nH]c5ccccc5c4C[C@@]4(O)[C@@H](C2)N(CC2CC2)CC[C@]314 [Naltrindole, naltrindole]",IC50,"DOP-R [4]; Mean (± SEM) IC50 for Striatal DOP-R Inhibition, DPDPE Inhibition, DPDPE (10 μmol/L)-stimulated [35S]GTPγS binding",0.4 ± 0.02 nM
same,IC50,"DOP-R [4]; Mean (± SEM) IC50 for Striatal DOP-R Inhibition, SNC80 Inhibition, SNC80 (10 μmol/L)-stimulated [35S]GTPγS binding",31 ± 3.9 nM
same,IC50,"DOP-R [4]; Mean (± SEM) IC50 for Striatal DOP-R Inhibition, TAN67 Inhibition, TAN67 (10 μmol/L)-stimulated [35S]GTPγS binding",> 10000 nM
same,Preference for Ethanol,"[2]; 1 mg/kg IP, 24 hours",38.2 ± 3.7%
same,Preference for Ethanol,"[2]; 5 mg/kg IP, 24 hours",31.7 ± 4.0%
same,Preference for Ethanol,"[2]; 10 mg/kg IP, 24 hours",31.0 ± 3.3%
same,Ethanol consumption compared with vehicle,"[2]; 5 and 10 mg/kg IP, 24 hours, continuous access 10% ethanol",significantly reduce ethanol consumption
same,Preference for Ethanol,[3]; 1 mg/kg IP,53.4 ± 7.9%
same,Preference for Ethanol,[3]; 5 mg/kg IP,55.1 ± 8.3%
same,Preference for Ethanol,[3]; 10 mg/kg IP,48.8 ± 6.1%
same,Ethanol consumption compared with vehicle,"[3]; all doses tested, IP",did not significantly affect ethanol consumption
"Oc1ccc2c3c1O[C@H]1c4ncc(-c5ccc(Cl)cc5)cc4C[C@@]4(O)[C@@H](C2)N(CC2CC2)CC[C@]314 [SoRI-9409, 5’-(4-Chlorophenyl)-17-(cyclopropylmethyl)-6,7-didehydro-3,14-dihydroxy-4,5-α-epoxypyrido-[2’,3’:6,7]morphinan]",IC50,"DOP-R [4]; read-out: Mean (± SEM) IC50 for Striatal DOP-R Inhibition, DPDPE Inhibition, DPDPE (10 μmol/L)-stimulated [35S]GTPγS binding",3.5 ± 0.3 nM
same,IC50,"DOP-R [4]; read-out: Mean (± SEM) IC50 for Striatal DOP-R Inhibition, SNC80 Inhibition, SNC80 (10 μmol/L)-stimulated [35S]GTPγS binding",31 ± 3.2 nM
same,IC50,"DOP-R [4]; read-out: Mean (± SEM) IC50 for Striatal DOP-R Inhibition, TAN67 Inhibition, TAN67 (10 μmol/L)-stimulated [35S]GTPγS binding",56 ± 8.2 nM
same,Detection in plasma after dosing,[5],still detectable in plasma at 12 hours after dosing
same,Elimination half-life,[5]; preliminary investigation,2.5 h
same,Induction of analgesia and hyperalgesia,rats [6],did not reduce morphine-mediated analgesia or induce analgesia and hyperalgesia
same,Conditioned place preference or aversion,rats [7],does not produce conditioned place preference or aversion
same,Anxiolytic or anxiogenic effect,rats [8],is not anxiolytic or anxiogenic
same,Ki,"[9]; read-out: Ki, binding affinity at the DOP-R",2.2 ± 0.2 nM
same,higher binding affinity at the DOP-R relative to naltrexone,[9]; versus naltrexone structure,approximately 20 fold
same,Ki,"[10]; read-out: Ki, binding affinity for the MOP-R",51 ± 8 nM
same,reduced binding affinity for the MOP-R relative to naltrexone,[10]; versus naltrexone structure,approximately 20 fold
same,Ethanol consumption compared with vehicle,"[2]; 5 mg/kg IP, 24 hours, continuous access 10% ethanol",but not the 5-mg/kg dose
same,Preference for Ethanol,"[2]; 5 mg/kg IP, 24 hours",39.5 ± 8.6%
same,Preference for Ethanol,"[2]; 15 mg/kg IP, 24 hours",32.4 ± 7.3 ^b %
same,Preference for Ethanol,"[2]; 30 mg/kg IP, 24 hours",24.0 ± 6.2 ^b %
same,Ethanol consumption compared with vehicle,"[2]; 15 and 30 mg/kg IP, 24 hours, continuous access 10% ethanol",significantly reduce ethanol consumption
same,Preference for Ethanol,[3]; 5 mg/kg IP,49.9 ± 7.3%
same,Preference for Ethanol,[3]; 15 mg/kg IP,42.1 ± 7.4 ^a %
same,Preference for Ethanol,[3]; 30 mg/kg IP,32.8 ± 4.9 ^a %
same,Ethanol intake after 30 min,[3],selectively reduced ethanol intake
same,Ethanol consumption compared with vehicle,"[3]; all doses tested, IP",significantly reduced ethanol consumption at all doses
same,Effectiveness at reducing ethanol consumption compared with naltrexone or naltrindole,[3]; high-ethanol–consuming animals,threefold more effective
same,Escalation and maintenance of ethanol intake compared with vehicle,"[11]; 5 mg/kg IP daily for 28 days (12 ethanol exposures), n = 16",significantly reduced the escalation and maintenance of ethanol intake
same,Reduction of ethanol intake compared with saline-treated rats,"[11]; 5 mg/kg IP daily, for up to 28 days",> 50%
"CN1CCC2(c3cccc(O)c3)Cc3nc4ccccc4cc3CC2C1 (stereo not drawn) [TAN67, (2-methyl-4a (α)-(3-hydroxyphenyl)-1,2,3,4,4a,5,12, 12a(α)-octahydro-quinolino[2,3,3,g]isoquinoline) dihydrobromide]",EC50,"DOP-R [12]; read-out: Mean (± SEM) EC50 for DOP-R Stimulation, Spinal Cord, spinal cord membranes",3700 ± 2200 nM
same,EC50,"DOP-R [12]; read-out: Mean (± SEM) EC50 for DOP-R Stimulation, Striatum, striatum membranes",372 ± 20 nM
